The text below walks through data of US7176224B2, “Oxazolyl-aryloxyacetic acid derivatives and their use as PPAR agonists” (Eli Lilly and Company, priority 2000, dated 2007).

One assay concerns Hu apoAI transgenic mice. As to the kind of experiment: Evaluation of triglyceride and cholesterol levels in hu apoAI transgenic mice. It counts as in vivo. Here is the method:
Five to six week old male mice, transgenic for human apoAI [C57B1/6-tgn(apoa1) 1rub, Jackson Laboratory, Bar Harbor, Me.] were housed five per cage (10″×20″8″ with aspen chip bedding) with food (Purina 5001) and water available at all times. After an acclimation period of 2 weeks, animals were individually identified by ear notches, weighed, and assigned to groups based on body weight. Beginning the following morning, mice were dosed daily by oral gavage for 7 days using a 20 gauge, 1½″ curved disposable feeding needle (Popper & Sons). Treatments were test compounds (30 mg/kg), a positive control (fenofibrate, 100 mg/kg) or vehicle [1% carboxymethylcellulose (w/v)/0.25% Tween80 (w/v); 0.2 ml/mouse]. Prior to termination on day 7, mice were weighed and dosed. Three hours after dosing, animals were anesthetized by inhalation of isoflurane (2–4%; Abbott Laboratories, Chicago, Ill.) and blood obtained via cardiac puncture (0.7–1.0 ml). Whole blood was transferred to serum separator tubes (Vacutainer SST), chilled on ice, and permitted to clot. Serum was obtained after centrifugation at 4° C. and frozen until analysis for triglycerides, total cholesterol, compound levels, and serum lipoprotein profile by fast protein liquid chromatography (FPLC) coupled to an inline detection system. After sacrifice by cervical dislocation, the liver, heart and epididymal fat pads were excised and weighed.
The animals dosed with vehicle had average triglycerides values of 60–80 mg/dl, which were reduced by the positive control fenofibrate (33–58 mg/dl with a mean reduction of 37%). The animals dosed with vehicle had average total serum cholesterol values of 140–180 mg/dl, which were increased by fenofibrate (190–280 mg/dl, with a mean elevation of 41%). […] increased the amount of HDLc (68–96 v-sec with a mean percent increase of 48%).
Glucose was measured colorimetrically using commercially purchased reagents (Sigma #315-500). According to the manufacturers, the procedures were modified from published work (McGowan, M. W., Artiss, J. D., Strandbergh, D. R. & Zak, B. Clin Chem, 20:470–5 (1974) and Keston, A. Specific colorimetric enzymatic analytical reagents for glucose. Abstract of papers 129th Meeting ACS, 31C (1956).); and depend on the release of a mole of hydrogen peroxide for each mole of analyte, coupled with a color reaction first described by Trinder (Trinder, P. Determination of glucose in blood using glucose oxidase with an alternative oxygen acceptor. Ann Clin Biochem, 6:24 (1969)). The absorbance of the dye produced is linearly related to the analyte in the sample. The assays were further modified in our laboratory for use in a 96 well format. Standards (Sigma #339-11, Sigma #16-11, and Sigma #CC0534 for glucose, triglycerides and total cholesterol, respectively), quality control plasma (Sigma # A2034), and samples (2 or 5 μl/well) were measured in duplicate using 200 μl of reagent. An additional aliquot of sample, pipetted to a third well and diluted in 200 μl water, provided a blank for each specimen. Plates were incubated at room temperature (18, 15, and 10 minutes for glucose, triglycerides and total cholesterol, respectively) on a plate shaker (DPC Micormix 5) and absorbance read at 500 nm (glucose and total cholesterol) or 540 nm (triglycerides) on a plate reader (Wallac Victor 1420). Sample absorbances were compared to a standard curve (100–800, 10–500, and 100–400 mg/dl for glucose, triglycerides and total cholesterol, respectively). Values for the quality control sample were always within the expected range and the coefficient of variation for samples was below 10%. All samples from an experiment were assayed at the same time to minimize inter-assay variability.
Serum lipoproteins were separated and cholesterol quantitated with an in-line detection system. Sample was applied to a Superose® 6 HR 10/30 size exclusion column (Amersham Pharmacia Biotech) and eluted with phosphate buffered saline-EDTA at 0.5 ml/min. […]

For assay [1], the system named is huPPARγ. As to the kind of experiment: Cotransfection assay in CV-1 cells, luciferase reporter. The note with it: GAL4 chimeric system, relative to agonist reference molecule. It counts as cell-based, human. How it is done:
[…] binding (ABCD binding) was carried out using SPA technology with PPAR receptors. […] Cotransfection assays were carried out in CV-1 cells. The reporter plasmid contained an acylCoA oxidase (AOX) PPRE and TK promoter upstream of the luciferase reporter cDNA. Appropriate PPARs and RXRα were constitutively expressed using plasmids containing the CMV promoter. […] In order to eliminate such interference, a GAL4 chimeric system was used in which the DNA binding domain of the transfected PPAR was replaced by that of GAL4, and the GAL4 response element was utilized in place of the AOX PPRE. […] Efficacies were determined by computer fit to a concentration-response curve, or in some cases at a single high concentration of agonist (10 μM). For binding or cotransfection studies with receptors other than PPARs, similar assays were carried out using appropriate ligands, receptors, reporter constructs, etc., for that particular receptor.
(§1) These studies were carried out to evaluate the ability of compounds of the invention to bind to and/or activate various nuclear transcription factors, particularly huPPARα (“hu” indicates “human”) and huPPARγ. These studies provide in vitro data concerning efficacy and selectivity of compounds of the invention. Furthermore, binding and cotransfection data for compounds of the invention were compared with corresponding data for marketed compounds that act on either huPPARα or huPPARγ.
On the technique in general: A reporter such as luciferase makes a cellular process visible.

Assay [2] concerns the target T1, huPPARα (Homo sapiens, UniProt Q07869).
T1 sequence (Q07869 1-468): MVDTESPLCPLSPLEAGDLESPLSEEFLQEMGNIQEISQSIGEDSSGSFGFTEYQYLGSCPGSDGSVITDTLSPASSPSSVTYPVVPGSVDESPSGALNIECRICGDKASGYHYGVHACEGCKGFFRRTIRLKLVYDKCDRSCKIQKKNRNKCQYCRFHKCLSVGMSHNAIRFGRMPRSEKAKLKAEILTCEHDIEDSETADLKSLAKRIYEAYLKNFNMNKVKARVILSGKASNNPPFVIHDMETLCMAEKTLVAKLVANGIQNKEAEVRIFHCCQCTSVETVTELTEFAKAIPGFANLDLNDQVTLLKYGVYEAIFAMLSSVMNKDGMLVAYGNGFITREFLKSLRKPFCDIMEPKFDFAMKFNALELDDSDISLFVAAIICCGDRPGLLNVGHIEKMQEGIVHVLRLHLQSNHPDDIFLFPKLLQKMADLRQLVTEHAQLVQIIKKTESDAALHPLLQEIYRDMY
T1 sequence (P19793 1-462 partner): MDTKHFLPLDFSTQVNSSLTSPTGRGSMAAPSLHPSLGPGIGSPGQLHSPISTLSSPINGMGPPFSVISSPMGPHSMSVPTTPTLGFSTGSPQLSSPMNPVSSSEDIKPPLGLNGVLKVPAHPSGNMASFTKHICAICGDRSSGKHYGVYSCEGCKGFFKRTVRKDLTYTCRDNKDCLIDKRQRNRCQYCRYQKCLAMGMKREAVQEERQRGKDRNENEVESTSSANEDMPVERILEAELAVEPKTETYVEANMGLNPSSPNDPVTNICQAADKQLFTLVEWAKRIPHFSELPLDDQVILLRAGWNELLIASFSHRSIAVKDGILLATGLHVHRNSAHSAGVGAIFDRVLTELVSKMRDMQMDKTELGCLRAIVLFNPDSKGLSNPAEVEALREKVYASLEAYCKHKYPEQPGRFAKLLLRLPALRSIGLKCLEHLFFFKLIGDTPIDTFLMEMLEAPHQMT
As to the kind of experiment: DNA-dependent binding (ABCD binding), SPA, radioligand displacement. The note with it: tritium-labeled PPARα agonist radioligand. Here is the method: (§2) […] binding (ABCD binding) was carried out using SPA technology with PPAR receptors. Tritium-labeled PPARα and PPARγ agonists were used as radioligands for generating displacement curves and IC50 values with compounds of the invention. Cotransfection assays were carried out in CV-1 cells. The reporter plasmid contained an acylCoA oxidase (AOX) PPRE and TK promoter upstream of the luciferase reporter cDNA. Appropriate PPARs and RXRα were constitutively expressed using plasmids containing the CMV promoter. […] In order to eliminate such interference, a GAL4 chimeric system was used in which the DNA binding domain of the transfected PPAR was replaced by that of GAL4, and the GAL4 response element was utilized in place of the AOX PPRE. Cotransfection efficacy was determined relative to PPARα agonist and […] reference molecules. Efficacies were determined by computer fit to a concentration-response curve, or in some cases at a single high concentration of agonist (10 μM). For binding or cotransfection studies with receptors other than PPARs, similar assays were carried out using appropriate ligands, receptors, reporter constructs, etc., for that particular receptor.
as §1
On the technique in general: In a radioligand displacement assay an active substance lowers the binding of a labelled ligand.

For assay [3], the target named is T2, huPPARγ (Homo sapiens, UniProt P37231).
T2 sequence (P37231 1-505): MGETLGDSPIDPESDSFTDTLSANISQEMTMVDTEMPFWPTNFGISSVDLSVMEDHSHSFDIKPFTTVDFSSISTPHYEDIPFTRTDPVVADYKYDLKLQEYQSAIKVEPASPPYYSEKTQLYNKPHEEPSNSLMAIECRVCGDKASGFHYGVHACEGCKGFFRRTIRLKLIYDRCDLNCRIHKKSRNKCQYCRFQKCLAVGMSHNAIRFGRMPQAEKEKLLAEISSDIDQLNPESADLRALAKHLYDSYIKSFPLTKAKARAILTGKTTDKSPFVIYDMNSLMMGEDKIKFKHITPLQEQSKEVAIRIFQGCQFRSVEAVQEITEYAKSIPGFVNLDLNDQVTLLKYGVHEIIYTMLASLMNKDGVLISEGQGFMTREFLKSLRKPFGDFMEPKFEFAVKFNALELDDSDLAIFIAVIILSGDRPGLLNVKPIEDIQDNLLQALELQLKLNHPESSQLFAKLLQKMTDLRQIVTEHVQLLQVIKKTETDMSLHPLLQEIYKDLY
T2 sequence (P19793 1-462 partner): T1 sequence (P19793 1-462 partner)
Described as above. The settings on record: tritium-labeled PPARγ agonist radioligand. How it is done: as §2, §1

Assay [4] deals with huPPARα. As to the kind of experiment: Cotransfection assay in CV-1 cells, luciferase reporter. The note with it: GAL4 chimeric system, relative to PPARα agonist reference molecule. It is filed as cell-based, human. Here is the method:
[…] binding (ABCD binding) was carried out using SPA technology with PPAR receptors. Tritium-labeled PPARα and PPARγ agonists were used as radioligands for generating displacement curves and IC50 values with compounds of the invention. Cotransfection assays were carried out in CV-1 cells. The reporter plasmid contained an acylCoA oxidase (AOX) PPRE and TK promoter upstream of the luciferase reporter cDNA. Appropriate PPARs and RXRα were constitutively expressed using plasmids containing the CMV promoter. For PPARα and […], interference by endogenous […] in CV-1 cells was an issue. In order to eliminate such interference, a GAL4 chimeric system was used in which the DNA binding domain of the transfected PPAR was replaced by that of GAL4, and the GAL4 response element was utilized in place of the AOX PPRE. Cotransfection efficacy was determined relative to PPARα agonist and […] reference molecules. Efficacies were determined by computer fit to a concentration-response curve, or in some cases at a single high concentration of agonist (10 μM). For binding or cotransfection studies with receptors other than PPARs, similar assays were carried out using appropriate ligands, receptors, reporter constructs, etc., for that particular receptor.
as §1

[5] abbreviates: 100 mg/kg oral gavage daily for 7 days, versus vehicle.

In the case of `CC(C)OC(=O)C(C)(C)Oc1ccc(C(=O)c2ccc(Cl)cc2)cc1` [fenofibrate], the “high density lipoprotein cholesterol (HDLc) peak area” value in the assay with Hu apoAI transgenic mice (100 mg/kg oral gavage daily for 7 days, pooled sera, FPLC, vehicle 47 to 62 v-sec) is reported as 68–96 v-sec. In the assay on Hu apoAI transgenic mice (100 mg/kg oral gavage daily for 7 days, serum, vehicle 60–80 mg/dl), this compound yielded an average triglycerides values of 33 to 58 mg/dL. Besides, the “average total serum cholesterol values” with Hu apoAI transgenic mice (100 mg/kg oral gavage daily for 7 days, vehicle 140–180 mg/dl) was 190 to 280 mg/dL. Besides, in the assay with Hu apoAI transgenic mice (setting [5]), the “mean elevation of total serum cholesterol” value stood at 41%, the “mean percent increase of HDLc” value was 48% and the “mean reduction of triglycerides” value is on record as 37%.

Turning to `CCC(Cc1ccc(OCCc2nc(-c3cccc(-c4ccccc4)c3)oc2C)cc1)(Oc1ccccc1)C(=O)O` (stereo not drawn) [Example 41, 2-{4-[2-(2-Biphenyl-3-yl-5-methyl-oxazol-4-yl)-ethoxy]-benzyl}-2-phenoxy-butyric acid], the “huPPARγ CTF Efficacy” value in the assay with huPPARγ [1] was 108%. The IC50 – broadly, the midpoint of a concentration-inhibition curve – is 0.402 µM on huPPARα [2] and 0.045 µM on huPPARγ [3]. Besides, the “huPPARα CTF Efficacy” value with huPPARα [4] worked out at 44%.

Consider `Cc1oc(-c2cccc(-c3cccs3)c2)nc1CCOc1ccc(CC(C)(Oc2ccc(Cl)cc2)C(=O)O)cc1` (stereo not drawn) [Example 26, 2-(4-Chlorophenoxy)-2-methyl-3-(4-{2-[5-methyl-2-(3-thiophen-2-yl-phenyl)-oxazol-4-yl]-ethoxy}-phenyl)-propionic acid], for which the “huPPARγ CTF Efficacy” value in the assay on huPPARγ [1] came to 100%. Moreover, the figures for the IC50 at huPPARα [2] and on huPPARγ [3] were 0.159 µM and 0.055 µM, respectively. In addition, the “huPPARα CTF Efficacy” value in the assay with huPPARα [4] stood at 54%.

In the case of `Cc1oc(-c2cccc(-c3ccsc3)c2)nc1CCOc1ccc(CC(C)(Oc2ccc(C(C)(C)C)cc2)C(=O)O)cc1` (stereo not drawn) [Example 19, 2-Methyl-3-(4-{2-[5-methyl-2-(3-thiophen-3-yl-phenyl)-oxazol-4-yl]-ethoxy}-phenyl)-2-(4-tert-butylphenoxy)-propionic acid], the “% HDLc Increase” value with Hu apoAI transgenic mice (30 mg/kg oral gavage daily for 7 days, serum HDLc FPLC area under the curve, over mice receiving vehicle) amounted to 85.3%.
